# Publication PMC12406203 (Journal of Medicinal Chemistry, 2025)
# Assays:
# Assay in all cases: KINOMEscan
# Assay type in all cases: binding
# PIM1 = biological target: T1, PIM1 (Homo sapiens, UniProt P11309)
# T1 construct: purchased Eurofins DiscoverX, LLC; host or cells: E. coli BL21-derived host (T7 phage) or HEK-293
# AURKA = biological target: T2, AURKA (Homo sapiens, UniProt O14965)
# T2 construct: purchased Eurofins DiscoverX, LLC; host or cells: E. coli BL21-derived (T7 phage) or HEK-293
# T2 sequence (O14965 1-403): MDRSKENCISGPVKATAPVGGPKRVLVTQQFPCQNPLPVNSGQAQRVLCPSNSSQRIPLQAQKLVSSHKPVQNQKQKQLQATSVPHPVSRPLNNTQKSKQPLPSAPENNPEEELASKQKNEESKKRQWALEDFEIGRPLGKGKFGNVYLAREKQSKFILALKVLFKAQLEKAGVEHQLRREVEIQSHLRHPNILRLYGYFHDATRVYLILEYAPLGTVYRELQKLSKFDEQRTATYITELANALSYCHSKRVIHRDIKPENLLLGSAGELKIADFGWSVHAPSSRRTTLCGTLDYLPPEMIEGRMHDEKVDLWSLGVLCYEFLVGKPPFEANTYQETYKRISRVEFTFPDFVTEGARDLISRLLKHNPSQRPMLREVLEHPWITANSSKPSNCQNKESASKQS
# JNK2 = biological target: T3, JNK2 (Homo sapiens, UniProt P45984)
# T3 construct: purchased Eurofins DiscoverX, LLC; host or cells: E. coli (BL21-derived, T7 phage) or HEK-293
# T3 sequence (P45984 whole entry): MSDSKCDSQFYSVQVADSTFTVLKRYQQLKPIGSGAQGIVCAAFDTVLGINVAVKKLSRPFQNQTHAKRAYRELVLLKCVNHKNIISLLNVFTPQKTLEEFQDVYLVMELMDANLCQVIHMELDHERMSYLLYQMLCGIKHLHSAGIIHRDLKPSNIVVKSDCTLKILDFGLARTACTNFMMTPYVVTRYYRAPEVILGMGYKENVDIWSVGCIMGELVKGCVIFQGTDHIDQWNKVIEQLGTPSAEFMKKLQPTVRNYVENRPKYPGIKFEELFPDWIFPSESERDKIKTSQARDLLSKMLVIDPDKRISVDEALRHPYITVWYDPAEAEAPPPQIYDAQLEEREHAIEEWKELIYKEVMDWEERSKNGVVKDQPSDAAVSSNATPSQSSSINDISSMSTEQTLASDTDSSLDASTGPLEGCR
# PAK1 = biological target: T4, PAK1 (Homo sapiens, UniProt Q13153)
# T4 construct: purchased Eurofins DiscoverX, LLC; host or cells: E. coli (BL21-derived, T7 phage) or HEK-293
# T4 sequence (Q13153 whole entry): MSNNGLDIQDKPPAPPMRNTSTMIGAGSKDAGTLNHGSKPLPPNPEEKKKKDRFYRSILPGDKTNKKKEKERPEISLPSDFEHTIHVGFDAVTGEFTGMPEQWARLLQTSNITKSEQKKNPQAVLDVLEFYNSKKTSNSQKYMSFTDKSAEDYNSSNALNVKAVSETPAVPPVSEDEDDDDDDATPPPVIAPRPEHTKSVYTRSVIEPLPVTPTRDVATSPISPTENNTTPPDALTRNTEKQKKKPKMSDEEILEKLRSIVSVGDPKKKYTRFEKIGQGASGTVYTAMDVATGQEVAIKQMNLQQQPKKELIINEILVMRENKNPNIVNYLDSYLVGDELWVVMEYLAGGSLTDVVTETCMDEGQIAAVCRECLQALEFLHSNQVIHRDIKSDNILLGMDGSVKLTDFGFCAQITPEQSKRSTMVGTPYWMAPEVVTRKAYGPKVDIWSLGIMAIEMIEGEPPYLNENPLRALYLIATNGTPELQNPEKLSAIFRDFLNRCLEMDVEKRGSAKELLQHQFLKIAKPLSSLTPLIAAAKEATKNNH
# BTK = biological target: T5, BTK (Homo sapiens, UniProt Q06187)
# T5 construct: purchased Eurofins DiscoverX, LLC; host or cells: E. coli BL21-derived (T7 phage) or HEK-293
# T5 sequence (Q06187 whole entry): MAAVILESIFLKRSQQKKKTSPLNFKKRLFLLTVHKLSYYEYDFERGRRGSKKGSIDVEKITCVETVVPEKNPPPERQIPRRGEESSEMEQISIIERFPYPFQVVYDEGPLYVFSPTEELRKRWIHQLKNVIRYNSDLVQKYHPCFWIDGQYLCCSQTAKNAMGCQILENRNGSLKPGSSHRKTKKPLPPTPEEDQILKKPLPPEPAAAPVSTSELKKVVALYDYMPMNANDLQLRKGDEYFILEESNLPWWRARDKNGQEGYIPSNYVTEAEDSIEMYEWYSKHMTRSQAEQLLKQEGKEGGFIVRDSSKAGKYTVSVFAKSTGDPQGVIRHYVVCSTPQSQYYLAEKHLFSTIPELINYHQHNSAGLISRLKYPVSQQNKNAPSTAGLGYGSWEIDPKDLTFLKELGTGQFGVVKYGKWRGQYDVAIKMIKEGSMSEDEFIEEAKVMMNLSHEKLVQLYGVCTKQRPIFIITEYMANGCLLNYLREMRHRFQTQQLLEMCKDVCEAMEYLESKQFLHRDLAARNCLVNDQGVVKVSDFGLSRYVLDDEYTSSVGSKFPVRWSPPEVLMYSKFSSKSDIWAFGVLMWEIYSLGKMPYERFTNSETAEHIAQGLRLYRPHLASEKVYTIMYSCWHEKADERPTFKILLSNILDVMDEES
# MAPKAPK5 = biological target: T6, MAPKAPK5 (Homo sapiens, UniProt Q8IW41)
# T6 construct: purchased Eurofins DiscoverX, LLC; host or cells: E. coli (BL21-derived, T7 phage) or HEK-293
# T6 sequence (Q8IW41 1-473): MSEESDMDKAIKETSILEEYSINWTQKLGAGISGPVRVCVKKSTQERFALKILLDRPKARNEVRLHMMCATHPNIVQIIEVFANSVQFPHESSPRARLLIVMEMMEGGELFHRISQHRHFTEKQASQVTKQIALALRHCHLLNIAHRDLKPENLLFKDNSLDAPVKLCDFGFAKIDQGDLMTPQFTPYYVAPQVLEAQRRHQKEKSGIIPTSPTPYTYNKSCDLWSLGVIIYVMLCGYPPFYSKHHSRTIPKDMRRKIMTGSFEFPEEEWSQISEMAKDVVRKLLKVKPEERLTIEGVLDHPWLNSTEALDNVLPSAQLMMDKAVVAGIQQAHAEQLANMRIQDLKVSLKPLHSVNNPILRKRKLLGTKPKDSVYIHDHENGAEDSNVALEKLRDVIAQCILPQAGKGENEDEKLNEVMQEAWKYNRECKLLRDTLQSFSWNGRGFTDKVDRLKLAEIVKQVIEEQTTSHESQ
# TGFBR1 = biological target: T7, TGFBR1 (Homo sapiens, UniProt P36897)
# T7 construct: purchased Eurofins DiscoverX, LLC; host or cells: E. coli BL21-derived host (T7 phage) or HEK-293
# T7 sequence (P36897 34-503): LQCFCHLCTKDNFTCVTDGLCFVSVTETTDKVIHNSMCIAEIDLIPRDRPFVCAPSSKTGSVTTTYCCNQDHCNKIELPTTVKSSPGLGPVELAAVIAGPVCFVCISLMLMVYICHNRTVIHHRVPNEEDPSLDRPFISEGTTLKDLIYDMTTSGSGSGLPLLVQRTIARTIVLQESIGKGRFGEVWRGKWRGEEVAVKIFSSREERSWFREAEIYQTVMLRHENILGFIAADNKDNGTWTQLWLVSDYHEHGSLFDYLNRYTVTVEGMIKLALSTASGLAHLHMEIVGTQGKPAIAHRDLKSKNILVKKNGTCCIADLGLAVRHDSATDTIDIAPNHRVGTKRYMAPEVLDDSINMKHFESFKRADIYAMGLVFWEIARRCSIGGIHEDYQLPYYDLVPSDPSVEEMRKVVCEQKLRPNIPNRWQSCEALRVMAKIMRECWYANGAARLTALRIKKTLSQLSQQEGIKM
# TIE2 = biological target: T8, TIE2 (Homo sapiens, UniProt Q02763)
# T8 construct: purchased Eurofins DiscoverX, LLC; host or cells: E. coli BL21-derived host (T7 phage) or HEK-293
# T8 sequence (Q02763 23-1124): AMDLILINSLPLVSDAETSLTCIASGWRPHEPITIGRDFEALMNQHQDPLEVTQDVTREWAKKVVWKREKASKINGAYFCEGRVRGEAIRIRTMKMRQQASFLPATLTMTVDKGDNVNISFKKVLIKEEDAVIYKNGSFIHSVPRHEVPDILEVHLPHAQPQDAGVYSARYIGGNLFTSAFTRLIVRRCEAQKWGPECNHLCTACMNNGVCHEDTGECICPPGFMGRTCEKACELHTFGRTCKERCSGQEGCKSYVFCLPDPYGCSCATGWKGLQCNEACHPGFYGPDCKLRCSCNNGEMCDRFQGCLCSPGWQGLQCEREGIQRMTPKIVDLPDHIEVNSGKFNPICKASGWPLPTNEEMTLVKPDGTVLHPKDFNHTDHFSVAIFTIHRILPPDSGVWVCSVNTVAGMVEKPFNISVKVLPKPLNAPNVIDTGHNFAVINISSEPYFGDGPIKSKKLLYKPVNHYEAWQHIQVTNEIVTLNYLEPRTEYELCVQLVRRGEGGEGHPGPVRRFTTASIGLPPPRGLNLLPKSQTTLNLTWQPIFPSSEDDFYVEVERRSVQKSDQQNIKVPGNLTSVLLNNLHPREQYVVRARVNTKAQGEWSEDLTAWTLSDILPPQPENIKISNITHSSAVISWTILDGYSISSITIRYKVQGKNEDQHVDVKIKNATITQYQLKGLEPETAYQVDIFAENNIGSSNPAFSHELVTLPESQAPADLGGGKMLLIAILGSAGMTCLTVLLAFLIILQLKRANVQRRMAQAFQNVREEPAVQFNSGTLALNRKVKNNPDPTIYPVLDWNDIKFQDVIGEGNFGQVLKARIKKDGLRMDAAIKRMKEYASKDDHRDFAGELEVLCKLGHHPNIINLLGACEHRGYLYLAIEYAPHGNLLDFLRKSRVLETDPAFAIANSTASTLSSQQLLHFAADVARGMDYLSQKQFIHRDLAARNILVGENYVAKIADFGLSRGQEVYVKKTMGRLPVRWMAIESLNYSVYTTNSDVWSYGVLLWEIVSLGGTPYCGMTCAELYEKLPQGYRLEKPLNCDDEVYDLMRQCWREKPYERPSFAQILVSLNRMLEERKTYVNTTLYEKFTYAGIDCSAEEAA
# JNK1 = biological target: T9, JNK1 (Homo sapiens, UniProt P45983)
# T9 construct: purchased Eurofins DiscoverX, LLC; host or cells: E. coli (BL21-derived, T7 phage) or HEK-293
# T9 sequence (P45983 whole entry): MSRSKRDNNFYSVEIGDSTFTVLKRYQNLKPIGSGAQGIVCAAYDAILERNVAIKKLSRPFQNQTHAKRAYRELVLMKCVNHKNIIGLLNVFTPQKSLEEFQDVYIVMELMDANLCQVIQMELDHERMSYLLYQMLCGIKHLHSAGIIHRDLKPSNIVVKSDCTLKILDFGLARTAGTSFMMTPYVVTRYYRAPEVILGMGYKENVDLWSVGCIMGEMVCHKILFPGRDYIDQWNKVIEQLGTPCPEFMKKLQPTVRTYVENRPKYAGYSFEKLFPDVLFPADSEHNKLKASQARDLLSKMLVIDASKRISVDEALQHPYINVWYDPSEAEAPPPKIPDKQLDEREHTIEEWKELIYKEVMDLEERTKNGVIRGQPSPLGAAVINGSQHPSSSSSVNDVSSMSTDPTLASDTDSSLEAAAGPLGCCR
# MKNK2 = biological target: T10, MKNK2 (Homo sapiens, UniProt Q9HBH9)
# T10 construct: purchased Eurofins DiscoverX, LLC; host or cells: E. coli (BL21-derived, T7 phage) or HEK-293
# T10 sequence (Q9HBH9 whole entry): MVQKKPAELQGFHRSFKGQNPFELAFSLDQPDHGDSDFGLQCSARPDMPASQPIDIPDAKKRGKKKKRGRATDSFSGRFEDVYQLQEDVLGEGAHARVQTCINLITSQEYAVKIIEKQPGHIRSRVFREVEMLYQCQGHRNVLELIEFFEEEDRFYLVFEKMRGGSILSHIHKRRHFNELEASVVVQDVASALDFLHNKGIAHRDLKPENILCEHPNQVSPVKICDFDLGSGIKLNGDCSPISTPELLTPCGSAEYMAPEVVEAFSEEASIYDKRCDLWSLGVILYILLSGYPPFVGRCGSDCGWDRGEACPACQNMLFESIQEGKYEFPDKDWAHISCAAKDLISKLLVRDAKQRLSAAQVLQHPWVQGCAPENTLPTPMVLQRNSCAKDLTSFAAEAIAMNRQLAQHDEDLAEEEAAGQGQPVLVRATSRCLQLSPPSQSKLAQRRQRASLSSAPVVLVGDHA
# PIK3CG = biological target: T11, PIK3CG (Homo sapiens, UniProt P48736)
# T11 construct: purchased Eurofins DiscoverX, LLC; host or cells: E. coli BL21-derived host (T7 phage) or HEK-293
# SRPK3 = biological target: T12, SRPK3 (Homo sapiens, UniProt Q9UPE1)
# T12 construct: purchased Eurofins DiscoverX, LLC; host or cells: E. coli BL21-derived host (T7 phage) or HEK-293
# T12 sequence (Q9UPE1 whole entry): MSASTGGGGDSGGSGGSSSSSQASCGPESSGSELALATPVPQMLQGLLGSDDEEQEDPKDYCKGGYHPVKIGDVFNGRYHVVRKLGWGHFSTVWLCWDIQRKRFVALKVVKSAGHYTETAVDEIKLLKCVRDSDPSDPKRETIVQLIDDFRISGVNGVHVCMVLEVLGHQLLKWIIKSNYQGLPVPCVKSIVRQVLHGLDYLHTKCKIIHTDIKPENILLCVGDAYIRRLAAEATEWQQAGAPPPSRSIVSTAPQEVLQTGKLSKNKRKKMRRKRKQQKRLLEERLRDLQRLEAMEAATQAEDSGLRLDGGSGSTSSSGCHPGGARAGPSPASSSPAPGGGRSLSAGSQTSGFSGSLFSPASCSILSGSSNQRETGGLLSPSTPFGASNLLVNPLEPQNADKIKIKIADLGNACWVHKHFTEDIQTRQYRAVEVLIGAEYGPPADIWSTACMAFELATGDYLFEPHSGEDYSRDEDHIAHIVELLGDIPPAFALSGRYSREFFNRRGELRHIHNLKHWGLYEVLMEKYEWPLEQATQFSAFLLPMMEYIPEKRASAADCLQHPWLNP
# T1 sequence (P11309 whole entry): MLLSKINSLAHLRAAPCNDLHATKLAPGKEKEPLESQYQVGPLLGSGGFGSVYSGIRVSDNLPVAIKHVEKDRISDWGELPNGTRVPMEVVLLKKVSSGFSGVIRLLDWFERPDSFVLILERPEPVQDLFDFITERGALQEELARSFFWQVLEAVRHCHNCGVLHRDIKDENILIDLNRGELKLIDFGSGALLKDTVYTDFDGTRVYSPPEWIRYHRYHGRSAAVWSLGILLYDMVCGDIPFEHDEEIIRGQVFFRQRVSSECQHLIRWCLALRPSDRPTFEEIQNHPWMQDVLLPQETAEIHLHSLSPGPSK
Structure (SMILES),RA @ 1000nM (PIM1),RA @ 10000nM (PIM1),RA @ 1000nM (AURKA),RA @ 10000nM (AURKA),RA @ 1000nM (JNK2),RA @ 10000nM (JNK2),RA @ 1000nM (PAK1),RA @ 10000nM (PAK1),RA @ 1000nM (BTK),RA @ 10000nM (BTK),RA @ 1000nM (MAPKAPK5),RA @ 10000nM (MAPKAPK5),RA @ 1000nM (TGFBR1),RA @ 10000nM (TGFBR1),RA @ 1000nM (TIE2),RA @ 10000nM (TIE2),RA @ 1000nM (JNK1),RA @ 10000nM (JNK1),RA @ 1000nM (MKNK2),RA @ 10000nM (MKNK2),further results
"CC(C)Cn1ncc2cc(Cc3ccc(F)cc3F)c(C(=O)NCCN(C)C)cc21 [Compound 94, 5-(2,4-Difluorobenzyl)-N-(2-(dimethylamino)ethyl)-1-isobutyl-1H-indazole-6-carboxamide]",95%,100%,96%,93%,52%,8.3%,96%,94%,100%,100%,100%,100%,100%,100%,100%,100%,77%,41%,76%,80%,RA @ 1000nM (PIK3CG): 86%; RA @ 10000nM (PIK3CG): 85%; RA @ 1000nM (SRPK3): 77%; RA @ 10000nM (SRPK3): 100%
"CN(C)CCNC(=O)c1cc2c(cnn2CC2CCCCC2)cc1Cc1ccc(F)cc1F [Compound 95, 1-(Cyclohexylmethyl)-5-(2,4-difluorobenzyl)-N-(2-(dimethylamino)ethyl)-1H-indazole-6-carboxamide]",100%,94%,95%,93%,44%,3.8%,100%,93%,100%,100%,100%,100%,100%,100%,90%,100%,100%,27%,81%,67%,RA @ 1000nM (PIK3CG): 92%; RA @ 10000nM (PIK3CG): 97%; RA @ 1000nM (SRPK3): 92%; RA @ 10000nM (SRPK3): 99%
